From patent US20100196521A1, “Formulation for the treatment of hypoxia and related disorders” (priority 2009, published 2010) come the findings set out here.

Assay [1] relates to methemoglobinemia model mice (sodium nitrite). Briefly: Sodium nitrite methemoglobinemia model, survival duration. It is filed as in vivo, NIH mice. The following applies: male quasi; for Survival Duration: observed 90 min; for Prolonged Percentage: vs negative control. From the text: This test was designed according to the relevant provisions of The Management of Medicine Registration issued by the State Food and Drug Administration (SFDA) of the People's Republic of China, and The Assemble of Guiding Principle of Pre-clinical Research on New Drugs (in Western Medicine) from the Bureau of Drug Administration, Ministry of Public Health, People's Republic of China. Five test groups were designed for this test, namely the negative control group (A), the positive control medicine group (B), and three groups administrated with the test item at the high (C), medium (D), and low (E) dosage levels. SPF class NIH mice were randomly distributed into 10-12 pieces (male quasi) in each group. The design of experiment was described in Table 5.
In establishing the methemoglobinemia model, a 2% sodium nitrite was injected into abdomen of the mice (male mice: 240 mg/kg, 12 mL/kg; female mice: 260 mg/kg, 13 mL/kg). Stopwatch was immediately started to record time and simultaneously, vegetable oil or the test item was applied to the mice of the respective group. Mice in the positive control group I (group B-I) were administered with Nimodipine through gastric gavage an hour before model was established, while those in the positive control group II were administered Nimodipine through gastric gavage immediately upon the setting up of the model. […]

Assay [2] concerns decapitated mice (acute cerebral ischemic hypoxia). Briefly: Global cerebral ischemia (decapitation method), formal test. The assay is classed as in vivo, NIH mice. To be noted: group B: 2.0 mg/kg hypodermic injection once a day for 2 days. From the text:
Five test groups were designed for this test, namely the negative control group (A), the positive control medicine group (B), and three groups administrated with the test item at the high (C), medium (D), and low (E) dosage levels. SPF class NIH mice were randomly distributed into 14 pieces in each group. The design of experiment was described in Table 9. Mice in negative control group (A) were topically applied with vegetable oil, whereas those in positive control group (B) were administrated with Nimodipine by hypodermic injection once a day for 2 consecutive days. Mice in groups (C), (D), and (E) received the test item through skin administration once a day for 7 consecutive days. 60 minutes after the final administration of the test item and vegetable oil to the mice of the corresponding groups, and 30 minutes after the final administration of Nimodipine to the mice of the positive medicine control group, the heads of mice were rapidly severed from the back of ear root with a pair of sharp scissors (decapitation method). The gasping duration and gasping frequency were immediately recorded with a stopwatch The results are shown as follows: […]

Assay [3] deals with cerebral ischemic hypoxia mice. Briefly: Cerebral circulatory disturbance hypoxia (common carotid artery and vagus ligation), survival. It is filed as in vivo, NIH mice. The following applies: group B: 2.0 mg/kg hypodermic injection once a day for 5 days. From the text: Five test groups were designed for this test, namely the negative control group (A), the positive control medicine group (B), and three groups administrated with the test item at the high (C), medium (D), and low (E) dosage levels. SPF class NIH mice were randomly distributed into 12 to 14 pieces in each group. The design of experiment was described in Table 15.
Mice in negative control group (A) were topically applied with vegetable oil, whereas those in positive control group (B) were administrated with Nimodipine by hypodermic injection. Mice in groups (C), (D), and (E) received the test item through skin administration. All the five groups received the corresponding item once a day for 5 consecutive days. 50 minutes after the final administration of the test item, and 30 minutes after the final administration of Nimodipine, the mice were given an intraperitoneal injection of Urethane (8%, 0.8 g/kg.bw, 10 mL/kg.bw) as anesthetics. The mice then underwent a separation of the left and right common carotid artery as well as the vagus, and were separately ligated with a No. 4 suture. Survival duration for the mice were immediately recorded with a stopwatch, with results as follows: […]

In assay [4] the test system is mice in low-pressure hypoxic environment. Briefly: Hypobaric hypoxia survival test. The assay is classed as in vivo, NIH mice. To be noted: group B: 26 mg/kg gastric gavage, male quasi. The method, then:
Five test groups were designed for this test, namely the negative control group (A), the positive control medicine group (B), and three groups administrated with the test item at the high (C), medium (D), and low (E) dosage levels. SPF class NIH mice were randomly distributed into 12 pieces in each group. The design of experiment was described in Table 13.
One hour after administrating the positive control medicine, and 30 minutes after applying the test item or the negative control in the corresponding groups, the mice (6 mice/batch, 2 batches/group) were put in consecutive order into the vacuum drier connected with a suction (built in soda lime to absorb CO2 and water). The suction process was started until the air pressure dropped to a certain negative pressure (Male mouse: 580 mmHg; female mouse: 600 mmHg). Then, stopwatch was used to record the survival duration and the number of survivals in each group within 60 minutes.

Assay [5] has as its system sodium nitrite induced memory consolidated handicap mice. Briefly: Memory consolidated handicap model, water maze test. It is filed as in vivo, NIH mice. To be noted: group B: 1.04 mg/kg intramuscular injection. From the text:
[…], a cerebral hypoxic agent, was used to establish this memory consolidated handicap model. Due to its strong oxidation property, it could convert low value iron in the hemoglobin into high value iron and thus affects the hemoglobin to lose its anti-oxidative ability, resulting in Methemoglobinemia disease. Brain tissue is the most sensitive tissue to hypoxia and it would be injured once it experienced memory consolidated handicap. Therefore, in the establishment of this model, the applying of […] would affect the space recognition ability of the mice. This test was designed according to the relevant provisions of The Management of Medicine Registration issued by the State Food and Drug Administration (SFDA) of the People's Republic of China, and The Assemble of Guiding Principle of Pre-clinical Research on New Drugs (in Western Medicine) from the Bureau of Drug Administration, Ministry of Public Health, People's Republic of China. Five test groups were designed for this test, namely the negative control group (A), the positive control medicine group (B), and three groups administrated with the test item at the high (C), medium (D), and low (E) dosage levels. […] The design of experiment was described in Table 11. Each group of mice was continuously trained for 5 days, once in the morning and once in the afternoon, for 60 seconds in each training session. Before the training session on the afternoon of the 5th day, sodium nitrite was administered at dose level of 160 mg/kg to the mice through hypodermic injection to induce the mice to experience memory consolidated handicap symptom. 30 minutes after medication, the water maze test was carried out. The aforesaid test was then repeated on the following morning.

Assay [6] relates to sodium nitrite induced hypoxia model mice. Briefly: Study on blood pH and blood hypoxia (sodium nitrite induced hypoxia animal model). It is filed as in vivo, SD mice. To be noted: 10 days after. As to the method: In this study regarding oxygen carrying ability of red blood cells, the test item was the formulation as described in Mixture 3 listed in Table 1 (the formulation). First of all, healthy SD mice were fed with sodium nitrite (17 mg/kg) by gastric gavage for 7 consecutive days to induce the hypoxia animal model. The mice were then randomly distributed into 8 groups: (A) normal mice blank control group, (B) normal mice applied with the formulation group (82.5 μL/kg), (C) model mice applied with vitamin C (62.5 mg/kg) control group, (D) model mice applied with vitamin E (104 mg/kg) control group, (E) model mice applied with vegetable oil (82.5 μL/kg) control group, (F) model mice applied with high dose of the formulation (330 μL/kg), (G) model mice applied with medium dose of the formulation (165 μL/kg), (H) model mice applied with low dose of the formulation (82.5 μL/kg). There were 12 mice for each group. On the 7th day of hypoxia model induction, the formulation was applied topically on the mice in the formulation groups (B, F, G and H), and equal amount of vegetable oil was also topically applied on the mice in the group (E). Vitamins C and E were administrated by gastric gavage to mice in groups (C) and (D) respectively. 10 days after the application of the corresponding items, blood samples were taken in which blood pH, arterial oxygen partial pressure (pO2), and blood oxygen were tested, and the results are as listed below: […]

[7] abbreviates: group B-I: 62 mg/kg gastric gavage an hour before model.
[8] abbreviates: group B-II: 62 mg/kg gastric gavage immediately upon model.
Where [9] appears, read: group C: hypoxia model mice, 62.5 mg/kg gastric gavage.
[10] abbreviates: group D: hypoxia model mice, 104 mg/kg gastric gavage.

As to `COCCOC(=O)C1=C(C)NC(C)=C(C(=O)OC(C)C)C1c1cccc([N+](=O)[O-])c1` (stereo not shown) [Nimodipine], in assay [1] (setting [7]), the “Survival Duration” value stood at 48.44 ± 21.36 min and the “Prolonged Percentage” value is on record as 56.26%. For the same molecule, in assay [1] (setting [8]), the “Survival Duration” value is 39.10 ± 17.30 min and the “Prolonged Percentage” value came out at 26.24%. Moreover, in assay [2], the “Gasping Duration, Time” value is 24.6 ± 4.6 s and the “Gasping Frequency, Times” value came out at 14.5 ± 3.6 Times. Moreover, in assay [2] (vs negative control), the “Gasping Duration, Extension Rate” value was 28.6% and the “Gasping Frequency, Increment Rate” value worked out at 25.6%. In addition, the “Survival Duration” value in assay [3] is reported as 55.4 ± 15.2 min. The “Prolonged Percentage” value in assay [3] (vs negative control) was found to be 1224.3%.

For `CC(C)NCC(O)COc1cccc2ccccc12` (stereo not shown) [Propranolol], in assay [4] (vs negative control), the “Prolonged Percentage” value stood at 108.4%. Also, in assay [4] (within 60 minutes), the “Survival Duration” value is 50.40 ± 16.33 min and the “Survival Percentage” value is 41.7%.

For `O=C1O[C@H]([C@@H](O)CO)C(O)=C1O` [Vitamin C, vitamin C], in assay [5] (Day 5, Afternoon (after sodium nitrite 160 mg/kg)), the “Time to Reach the Platform” value is 46.9 ± 15.5 s. The “Time to Reach the Platform” value in assay [5] (Day 5, Morning (before sodium nitrite)) came to 42.0 ± 24.3 s. Also, the “Time to Reach the Platform” value in assay [5] (Day 6, Morning) stood at 41.7 ± 21.1 s. In addition, in assay [6] (setting [9]), the Blood oxygen is given as 93.6 ± 1.3 %, the “Blood pH” value is listed as 7.420 ± 0.036 and the Oxygen partial pressure stood at 10.51 ± 0.96 kPa.

Turning to vitamin E, in assay [6] (setting [10]), the Blood oxygen is recorded as 94.0 ± 2.1 %, the “Blood pH” value is recorded as 7.455 ± 0.049 and the Oxygen partial pressure came to 10.76 ± 2.14 kPa.
